Test results reported in patent US11427567B2, “Imidazolyl pyrimidinylamine compounds as CDK2 inhibitors” (Incyte Corporation, priority 2019, dated 2022).

target: CDK2/Cyclin E1 (Homo sapiens (Human), UniProt P24941); assay: CDK2/Cyclin E1 HTRF enzyme activity assay (Example A); assay type: biochemical; details: 1 mM ATP
Description: Assays were conducted in white 384-well polystyrene plates in a final reaction volume of 8 μL. […] HTRF signals were read after 1 hour at room temperature on a PHERAstar FS plate reader (BMG Labtech). Data was analyzed with IDBS XLFit and GraphPad Prism 5.0 software using a three or four parameter dose response curve to determine IC50 for each compound.

| Compound | IC50 |
| --- | --- |
| CS(=O)(=O)N1CCC(Nc2ncc(C#N)c(-c3cn(-c4ccc(C#N)cc4Cl)cn3)n2)CC1 [Example 28, 4-(1-(2-Chloro-4-cyanophenyl)-1H-imidazol-4-yl)-2-((1-(methylsulfonyl)piperidin-4-yl)amino)pyrimidine-5-carbonitrile] | ≤ 50 nM |
| O=S(=O)(C1CC1)N1CCC(Nc2ncc(C(F)(F)F)c(-c3cn(CC(F)F)cn3)n2)CC1 [Example 29, N-(1-(Cyclopropylsulfonyl)piperidin-4-yl)-4-(1-(2,2-difluoroethyl)-1H-imidazol-4-yl)-5-(trifluoromethyl)pyrimidin-2-amine] | ≤ 50 nM |
| CC(C)(O)Cn1cnc(-c2nc(NC3CCN(S(=O)(=O)C4CC4)CC3)ncc2C(F)(F)F)c1 [Example 30, 1-(4-(2-((1-(Cyclopropylsulfonyl)piperidin-4-yl)amino)-5-(trifluoromethyl)pyrimidin-4-yl)-1H-imidazol-1-yl)-2-methylpropan-2-ol] | ≤ 50 nM |
| CS(=O)(=O)N1CCC(Nc2ncc(C(F)(F)F)c(-c3cn(-c4ccccc4C#N)cn3)n2)CC1 [Example 31, 2-(4-(2-((1-(Methylsulfonyl)piperidin-4-yl)amino)-5-(trifluoromethyl)pyrimidin-4-yl)-1H-imidazol-1-yl)benzonitrile] | ≤ 50 nM |
| CS(=O)(=O)N1CCC(Nc2ncc(C(F)(F)F)c(-c3cn(-c4cccnc4C(F)(F)F)cn3)n2)CC1 [Example 32, N-(1-(Methylsulfonyl)piperidin-4-yl)-5-(trifluoromethyl)-4-(1-(2-(trifluoromethyl)pyridin-3-yl)-1H-imidazol-4-yl)pyrimidin-2-amine] | ≤ 50 nM |
| Cc1nc(C#N)ccc1-n1cnc(-c2nc(NC3CCN(S(C)(=O)=O)CC3)ncc2C(F)(F)F)c1 [Example 33, 6-Methyl-5-(4-(2-((1-(methylsulfonyl)piperidin-4-yl)amino)-5-(trifluoromethyl)pyrimidin-4-yl)-1H-imidazol-1-yl)picolinonitrile] | ≤ 50 nM |
| CS(=O)(=O)N1CCC(Nc2ncc(C(F)(F)F)c(-c3cn(-c4cccnc4C#N)cn3)n2)CC1 [Example 34, 3-(4-(2-((1-(Methylsulfonyl)piperidin-4-yl)amino)-5-(trifluoromethyl)pyrimidin-4-yl)-1H-imidazol-1-yl)picolinonitrile] | ≤ 50 nM |
| Cc1cc(C#N)ccc1-n1cnc(-c2nc(NC3CCN(S(C)(=O)=O)CC3)ncc2C(F)(F)F)c1 [Example 35, 3-Methyl-4-(4-(2-((1-(methylsulfonyl)piperidin-4-yl)amino)-5-(trifluoromethyl)pyrimidin-4-yl)-1H-imidazol-1-yl)benzonitrile] | ≤ 50 nM |
| Cc1ccc(-n2cnc(-c3nc(NC4CCN(S(C)(=O)=O)CC4)ncc3C(F)(F)F)c2)c(C#N)n1 [Example 36, 6-Methyl-3-(4-(2-((1-(methylsulfonyl)piperidin-4-yl)amino)-5-(trifluoromethyl)pyrimidin-4-yl)-1H-imidazol-1-yl)picolinonitrile] | ≤ 50 nM |
| CS(=O)(=O)N1CCC(Nc2ncc(C(F)(F)F)c(-c3cn(-c4cccnc4C(F)F)cn3)n2)CC1 [Example 37, 4-(1-(2-(Difluoromethyl)pyridin-3-yl)-1H-imidazol-4-yl)-N-(1-(methylsulfonyl)piperidin-4-yl)-5-(trifluoromethyl)pyrimidin-2-amine] | ≤ 50 nM |
| CS(=O)(=O)N1CCC(Nc2ncc(C(F)(F)F)c(-c3cn(-c4cccc(C#N)c4C(F)(F)F)cn3)n2)CC1 [Example 38, 3-(4-(2-((1-(Methylsulfonyl)piperidin-4-yl)amino)-5-(trifluoromethyl)pyrimidin-4-yl)-1H-imidazol-1-yl)-2-(trifluoromethyl)benzonitrile] | ≤ 50 nM |
| COc1ccc(-n2cnc(-c3nc(NC4CCN(S(C)(=O)=O)CC4)ncc3C(F)(F)F)c2)c(C#N)n1 [Example 39, 6-Methoxy-3-(4-(2-((1-(methylsulfonyl)piperidin-4-yl)amino)-5-(trifluoromethyl)pyrimidin-4-yl)-1H-imidazol-1-yl)picolinonitrile] | ≤ 50 nM |
| CN(C)CCOc1ccc(-n2cnc(-c3nc(NC4CCN(S(C)(=O)=O)CC4)ncc3C(F)(F)F)c2)c(C#N)n1 [Example 40, 6-(2-(Dimethylamino)ethoxy)-3-(4-(2-((1-(methylsulfonyl)piperidin-4-yl)amino)-5-(trifluoromethyl)pyrimidin-4-yl)-1H-imidazol-1-yl)picolinonitrile] | ≤ 50 nM |
| CCc1ccc(-n2cnc(-c3nc(NC4CCN(S(C)(=O)=O)CC4)ncc3C(F)(F)F)c2)c(C#N)n1 [Example 41, 6-Ethyl-3-(4-(2-((1-(methylsulfonyl)piperidin-4-yl)amino)-5-(trifluoromethyl)pyrimidin-4-yl)-1H-imidazol-1-yl)picolinonitrile] | ≤ 50 nM |
| Cc1c(C#N)cccc1-n1cnc(-c2nc(N[C@H]3CCN(S(C)(=O)=O)C[C@H]3F)ncc2C(F)(F)F)c1 [Example 42, 3-(4-(2-(((3R,4S)-3-Fluoro-1-(methylsulfonyl)piperidin-4-yl)amino)-5-(trifluoromethyl)pyrimidin-4-yl)-1H-imidazol-1-yl)-2-methylbenzonitrile] | ≤ 50 nM |
| Cc1c(C#N)cccc1-n1cnc(-c2nc(NC3CCN(S(C)(=O)=O)CC3)ncc2C(F)(F)F)c1 [Example 43, 2-Methyl-3-(4-(2-((1-(methylsulfonyl)piperidin-4-yl)amino)-5-(trifluoromethyl)pyrimidin-4-yl)-1H-imidazol-1-yl)benzonitrile] | ≤ 50 nM |
| Cc1ccc(-n2cnc(-c3nc(NC4CCN(S(C)(=O)=O)CC4)ncc3C(F)(F)F)c2)c(C(F)(F)F)n1 [Example 44, 4-(1-(6-Methyl-2-(trifluoromethyl)pyridin-3-yl)-1H-imidazol-4-yl)-N-(1-(methylsulfonyl)piperidin-4-yl)-5-(trifluoromethyl)pyrimidin-2-amine] | ≤ 50 nM |
| CS(=O)(=O)N1CC[C@H](Nc2ncc(C(F)(F)F)c(-c3cn(-c4cccc(C#N)c4Cl)cn3)n2)[C@H](F)C1 [Example 45, 2-Chloro-3-(4-(2-(((3R,4S)-3-fluoro-1-(methylsulfonyl)piperidin-4-yl)amino)-5-(trifluoromethyl)pyrimidin-4-yl)-1H-imidazol-1-yl)benzonitrile] | ≤ 50 nM |
| Cc1ccc(-n2cnc(-c3nc(N[C@H]4CCN(S(C)(=O)=O)C[C@H]4F)ncc3C(F)(F)F)c2)c(C(F)(F)F)n1 [Example 46, N-((3R,4S)-3-Fluoro-1-(methylsulfonyl)piperidin-4-yl)-4-(1-(6-methyl-2-(trifluoromethyl)pyridin-3-yl)-1H-imidazol-4-yl)-5-(trifluoromethyl)pyrimidin-2-amine] | ≤ 50 nM |
| CS(=O)(=O)N1CC[C@H](Nc2ncc(C(F)(F)F)c(-c3cn(-c4cccnc4C#N)cn3)n2)[C@H](F)C1 [Example 47, 3-(4-(2-(((3R,4S)-3-Fluoro-1-(methylsulfonyl)piperidin-4-yl)amino)-5-(trifluoromethyl)pyrimidin-4-yl)-1H-imidazol-1-yl)picolinonitrile] | ≤ 50 nM |
| CS(=O)(=O)N1CC[C@H](Nc2ncc(C(F)(F)F)c(-c3cn(-c4cccnc4C(F)(F)F)cn3)n2)[C@H](F)C1 [Example 48, N-((3R,4S)-3-Fluoro-1-(methylsulfonyl)piperidin-4-yl)-5-(trifluoromethyl)-4-(1-(2-(trifluoromethyl)pyridin-3-yl)-1H-imidazol-4-yl)pyrimidin-2-amine] | ≤ 50 nM |
| Cc1nc(C#N)ccc1-n1cnc(-c2nc(N[C@H]3CCN(S(C)(=O)=O)C[C@H]3F)ncc2C(F)(F)F)c1 [Example 49, 5-(4-(2-(((3R,4S)-3-Fluoro-1-(methylsulfonyl)piperidin-4-yl)amino)-5-(trifluoromethyl)pyrimidin-4-yl)-1H-imidazol-1-yl)-6-methylpicolinonitrile] | ≤ 50 nM |
| CS(=O)(=O)N1CC[C@H](Nc2ncc(C(F)(F)F)c(-c3cn(-c4cccnc4C(F)F)cn3)n2)[C@H](F)C1 [Example 50, 4-(1-(2-(Difluoromethyl)pyridin-3-yl)-1H-imidazol-4-yl)-N-((3R,4S)-3-fluoro-1-(methylsulfonyl)piperidin-4-yl)-5-(trifluoromethyl)pyrimidin-2-amine] | ≤ 50 nM |
| Cc1ccc(-n2cnc(-c3nc(N[C@H]4CCN(S(C)(=O)=O)C[C@H]4F)ncc3C(F)(F)F)c2)c(C#N)n1 [Example 51, 3-(4-(2-(((3R,4S)-3-Fluoro-1-(methylsulfonyl)piperidin-4-yl)amino)-5-(trifluoromethyl)pyrimidin-4-yl)-1H-imidazol-1-yl)-6-methylpicolinonitrile] | ≤ 50 nM |
| COc1ccc(-n2cnc(-c3nc(N[C@H]4CCN(S(C)(=O)=O)C[C@H]4F)ncc3C(F)(F)F)c2)c(C#N)n1 [Example 52, 3-(4-(2-(((3R,4S)-3-Fluoro-1-(methylsulfonyl)piperidin-4-yl)amino)-5-(trifluoromethyl)pyrimidin-4-yl)-1H-imidazol-1-yl)-6-methoxypicolinonitrile] | ≤ 50 nM |
| CN(C)CCOc1ccc(-n2cnc(-c3nc(N[C@H]4CCN(S(C)(=O)=O)C[C@H]4F)ncc3C(F)(F)F)c2)c(C#N)n1 [Example 53, 6-(2-(Dimethylamino)ethoxy)-3-(4-(2-(((3R,4S)-3-fluoro-1-(methylsulfonyl)piperidin-4-yl)amino)-5-(trifluoromethyl)pyrimidin-4-yl)-1H-imidazol-1-yl)picolinonitrile] | ≤ 50 nM |
| CS(=O)(=O)N1CCC(Nc2ncc(C(F)(F)F)c(-c3cn(-c4c(F)cccc4Cl)cn3)n2)CC1 [Example 54, 4-(1-(2-Chloro-6-fluorophenyl)-1H-imidazol-4-yl)-N-(1-(methylsulfonyl)piperidin-4-yl)-5-(trifluoromethyl)pyrimidin-2-amine] | ≤ 50 nM |
| CS(=O)(=O)N1CCC(Nc2ncc(C(F)(F)F)c(-c3cn(-c4ccccc4Cl)cn3)n2)CC1 [Example 55, 4-(1-(2-Chlorophenyl)-1H-imidazol-4-yl)-N-(1-(methylsulfonyl)piperidin-4-yl)-5-(trifluoromethyl)pyrimidin-2-amine] | ≤ 50 nM |
